Measured values published in PubChem BioAssay AID1845205 (Molecular Pharmacology Branch, DTP, NCI, 2023).
Several values for one entry are separate records, joined by “and”; a condition that tells them apart may be missing. Equal values may be shown once.

Tested on: MPNST multicellular tumor spheroids, viability % test/control
Test: Anticancer human tumor MPNST cell line growth inhibition;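 note: spheroids exposed to agents for seven days after three days of growth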;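 for viability, T/C: luminescence signal used as surrogate for viable cell amount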
Settings: for viability, T/C: stronger effect = lower value
Excerpt: Multicellular complex tumor spheroid response to DNA repair inhibitors in combination with DNA-damaging drugs
This study explores the anticancer activities of DNA-damaging drugs and inhibitors of DNA damage repair, both as single agents and in combinations. Complex tumor spheroids comprised of malignant cells, endothelial cells and mesenchymal stem cells served as an in vitro model for human solid tumors. This model system incorporates physiologically relevant features and patient-derived or established malignant cell lines with clinically relevant genetic alterations from many tumor types. Twenty-six patient-derived or established malignant cell lines were evaluated representing sarcoma, melanoma, small cell lung cancer (SCLC), non-small cell lung cancer (NSCLC), as well as bladder, ovarian and pancreatic cancers. The concentration ranges selected for each drug and investigational agent were based upon clinically achievable concentrations if the clinical Cmax of the agent was known.
Compounds. The drugs and compounds olaparib (NSC753686), talazoparib (NSC767125), berzosertib (NSC777718), elimusertib (NSC800525), nedisertib (NSC802822), VX-984 (NSC792969), AZD-1390 (NSC803789), temozolomide (NSC362856), topotecan (NSC609699), trabectedin (NSC813783), staurosporine (NSC755774), and gemcitabine (NSC613327) were obtained from the National Cancer Institute (NCI) Developmental Therapeutics Program Chemical Repository. The FDA-approved anticancer drug set is available from the Developmental Therapeutics Program at https://dtp.cancer.gov/organization/dscb/obtaining/available_plates.htm. […] The stock solutions were prepared in dimethyl sulfoxide (DMSO, Sigma-Aldrich, St. Louis, MO, cat. D2650) at 400-fold the tested concentration and stored at -70 degrees C. Prior to their use, the stock solutions were diluted in fresh medium and the final DMSO concentration in the assay was 0.25% (v/v). All drugs and investigational agents were tested over a range starting from a high concentration at or near the clinical Cmax and decreasing in half-log increments. If the clinical Cmax for an agent had not been determined, the highest concentration tested was 10 microM.
Cell Lines. The patient-derived cancer cell (PDC) lines: 156681-154-R-J1-PDC, 283228-195-R-J1-PDC, 287954-098-R-J1-PDC, 292921-168-R-J2-PDC, 349418-098-R-PDC, 425362-245-T-J1-PDC, 556581-035-R-J1-PDC, and BL0293-F563-PDC were received from the NCI Patient-Derived Models Repository (PDMR, https://pdmr.cancer.gov). The established cell lines HS-SY-2 (RRID:CVCL_8719), MPNST, and SYO-1 (RRID:CVCL_7146) were obtained from the Sloan Kettering Institute. The alveolar soft parts sarcoma cell line ASPS-1 (RRID:CVCL_S738) was established at the NCI and grown from internal seed stocks. The following established cell lines were purchased from the American Type Culture Collection (ATCC, Manassas, VA): G-401 (ATCC, cat. CRL-1441, RRID:CVCL_0270), SW982 (ATCC, cat. HTB-93, RRID:CVCL_1734), VA-ES-BJ (ATCC, cat. CRL-2138, RRID:CVCL_1785), NCI-H719 (ATCC, cat. CRL-5837, RRID:CVCL_1582), NCI-H196 (ATCC, cat. CRL-5823, RRID:CVCL_1509), NCI-H841 (ATCC, cat. CRL-5845, RRID:CVCL_1595), NCI-H1618 (ATCC, cat. CRL-5879, RRID:CVCL_1480), NCI-H1876 (ATCC, cat. CRL-5902, RRID:CVCL_1503), DMS 114 (ATCC, cat. CRL-2066; RRID:CVCL_1174), NCI-H211 (ATCC, cat. CRL-5824; RRID:CVCL_1529), and SW 1271 (ATCC, cat. CRL-2177, RRID:CVCL_1716). The small cell lung cancer cell line COR-L88 was purchased from Sigma-Aldrich (cat. 92031917-1VL, RRID:CVCL_1141). The non-small cell lung cancer cell lines NCI-H226 (RRID:CVCL_1544) and NCI-H322M (RRID:CVCL_1557) were established at the NCI and grown from internal seed stocks. Pooled donor human umbilical vein endothelial cells (HUVEC, Lonza, cat. CC-2519) and human mesenchymal stem cells (hMSC, Lonza, cat. PT-2501) were purchased from Lonza (Walkersville, MD).
Cell Culture. All cells were maintained in an incubator at 37 degrees C and 5% CO2 with 95% humidity. […]

[1] = curve of first compound, second compound 30 pM
[2] = curve of first compound, second compound 94.9 pM
[3] = curve of first compound, second compound 0.0003 µM
[4] = curve of first compound, second compound 0.000949 µM
[5] = curve of first compound, second compound 0.003 µM

For `Cc1cc(C)c(CNC(=O)c2cc(-c3ccc(CN4CCOCC4)cc3)cc3c2cnn3C2CCCC2)c(=O)[nH]1`, the viability, T/C (compound 0.0316 µM) was 75.2% and 93.7% and 93.8%, the viability, T/C (compound 0.1 µM) was 119% and 109% and 93.5% and the viability, T/C (compound 0.316 µM) was 90.4% and 118% and 91.3%. The viability, T/C (compound 1 µM) was 97.2% and 101% and 92.3%, the viability, T/C (compound 3.16 µM) was 107% and 114% and 98.7% and the viability, T/C (compound 10 µM) was 79.3% and 100% and 107%. For the same compound, the IC50 (curve of compound) was > 10000 nM.
In the case of `COc1ccc([C@@H](O)c2cc(-c3ncnc4cc(N5CCOCC5)ccc34)c(F)cc2Cl)nn1` + COc1cc2c(cc1O)CCNC21CSC2c3c(OC(C)=O)c(C)c4c(c3C(COC1=O)N1C(O)C3Cc5cc(C)c(OC)c(O)c5C(C21)N3C)OCO4, the IC50 [1] is reported as 171 nM, the IC50 [2] is reported as 531 nM and the IC50 [3] is reported as 645 nM. For the same compound, the IC50 [4] was 174 nM, the IC50 [5] was < 31.6 nM and the viability, T/C (second compound 30 pM, first compound 0.0316 µM) was 97.1%. It also gave a viability, T/C (second compound 30 pM, first compound 0.1 µM) of 72%, a viability, T/C (second compound 30 pM, first compound 0.316 µM) of 24.1% and a viability, T/C (second compound 30 pM, first compound 1 µM) of 12.8%. For the same compound, the viability, T/C (second compound 30 pM, first compound 3.16 µM) was 5.82%, the viability, T/C (second compound 30 pM, first compound 10 µM) was 3.35% and the viability, T/C (second compound 94.9 pM, first compound 0.0316 µM) was 113%. The viability, T/C (second compound 94.9 pM, first compound 0.1 µM) was 74.7%, the viability, T/C (second compound 94.9 pM, first compound 0.316 µM) was 70.9% and the viability, T/C (second compound 94.9 pM, first compound 1 µM) was 39.6%. For the same compound, the viability, T/C (second compound 94.9 pM, first compound 3.16 µM) was 8.1%, the viability, T/C (second compound 94.9 pM, first compound 10 µM) was 3.63% and the viability, T/C (second compound 0.0003 µM, first compound 0.0316 µM) was 89.4%. For the same compound, the viability, T/C (second compound 0.0003 µM, first compound 0.1 µM) was 70.9%, the viability, T/C (second compound 0.0003 µM, first compound 0.316 µM) was 92.8% and the viability, T/C (second compound 0.0003 µM, first compound 1 µM) was 28.8%. It also gave a viability, T/C (second compound 0.0003 µM, first compound 3.16 µM) of 9.77%, a viability, T/C (second compound 0.0003 µM, first compound 10 µM) of 2.97% and a viability, T/C (second compound 0.000949 µM, first compound 0.0316 µM) of 84.4%. It also gave a viability, T/C (second compound 0.000949 µM, first compound 0.1 µM) of 48.4%, a viability, T/C (second compound 0.000949 µM, first compound 0.316 µM) of 55.4% and a viability, T/C (second compound 0.000949 µM, first compound 1 µM) of 14.4%. It also gave a viability, T/C (second compound 0.000949 µM, first compound 3.16 µM) of 11.7%, a viability, T/C (second compound 0.000949 µM, first compound 10 µM) of 0.94% and a viability, T/C (second compound 0.003 µM, first compound 0.0316 µM) of 15.7%. For the same compound, the viability, T/C (second compound 0.003 µM, first compound 0.1 µM) was 16.1%, the viability, T/C (second compound 0.003 µM, first compound 0.316 µM) was 8.56% and the viability, T/C (second compound 0.003 µM, first compound 1 µM) was 4.27%. For the same compound, the viability, T/C (second compound 0.003 µM, first compound 3.16 µM) was 2.63% and the viability, T/C (second compound 0.003 µM, first compound 10 µM) was 0.51%.
Work on `O=C(c1cc(Cc2n[nH]c(=O)c3ccccc23)ccc1F)N1CCN(C(=O)C2CC2)CC1` + COc1cc2c(cc1O)CCNC21CSC2c3c(OC(C)=O)c(C)c4c(c3C(COC1=O)N1C(O)C3Cc5cc(C)c(OC)c(O)c5C(C21)N3C)OCO4 yielded an IC50 [1] of 5280 nM, an IC50 [2] of 1620 nM and an IC50 [3] of 153 nM. The IC50 [4] was < 94.9 nM, the IC50 [5] was < 94.9 nM and the viability, T/C (second compound 30 pM, first compound 0.0949 µM) was 91.7%. It also gave a viability, T/C (second compound 30 pM, first compound 0.3 µM) of 79.2%, a viability, T/C (second compound 30 pM, first compound 0.949 µM) of 57.2% and a viability, T/C (second compound 30 pM, first compound 3 µM) of 72.7%. The viability, T/C (second compound 30 pM, first compound 9.49 µM) was 38.3%, the viability, T/C (second compound 30 pM, first compound 30 µM) was 25.2% and the viability, T/C (second compound 94.9 pM, first compound 0.0949 µM) was 50.1%. The viability, T/C (second compound 94.9 pM, first compound 0.3 µM) was 57.1%, the viability, T/C (second compound 94.9 pM, first compound 0.949 µM) was 70% and the viability, T/C (second compound 94.9 pM, first compound 3 µM) was 39.7%. The viability, T/C (second compound 94.9 pM, first compound 9.49 µM) was 29.7%, the viability, T/C (second compound 94.9 pM, first compound 30 µM) was 25.1% and the viability, T/C (second compound 0.0003 µM, first compound 0.0949 µM) was 53.5%. For the same compound, the viability, T/C (second compound 0.0003 µM, first compound 0.3 µM) was 44.5%, the viability, T/C (second compound 0.0003 µM, first compound 0.949 µM) was 40.3% and the viability, T/C (second compound 0.0003 µM, first compound 3 µM) was 34.5%. It also gave a viability, T/C (second compound 0.0003 µM, first compound 9.49 µM) of 28.6%, a viability, T/C (second compound 0.0003 µM, first compound 30 µM) of 25.3% and a viability, T/C (second compound 0.000949 µM, first compound 0.0949 µM) of 26.8%. For the same compound, the viability, T/C (second compound 0.000949 µM, first compound 0.3 µM) was 29.3%, the viability, T/C (second compound 0.000949 µM, first compound 0.949 µM) was 25.9% and the viability, T/C (second compound 0.000949 µM, first compound 3 µM) was 24.8%. It also gave a viability, T/C (second compound 0.000949 µM, first compound 9.49 µM) of 21.5%, a viability, T/C (second compound 0.000949 µM, first compound 30 µM) of 14.8% and a viability, T/C (second compound 0.003 µM, first compound 0.0949 µM) of 7.65%. It also gave a viability, T/C (second compound 0.003 µM, first compound 0.3 µM) of 7.5%, a viability, T/C (second compound 0.003 µM, first compound 0.949 µM) of 5.51% and a viability, T/C (second compound 0.003 µM, first compound 3 µM) of 6.23%. The viability, T/C (second compound 0.003 µM, first compound 9.49 µM) was 3.48% and the viability, T/C (second compound 0.003 µM, first compound 30 µM) was 2.13%.
